pIC50: −log10 of the molar value.
How the values were obtained:
Spindlin-1 = Spindlin-1 (Homo sapiens, UniProt Q9Y657); assay: Displacement of trimethylated biotinylated histone H3 peptide from recombinant human His-tagged SPIN1 (26 to 262 residues) expressed in Escherichia coli BL21 (DE3) incubated for 30 mins followed by peptide addition and measured after 1 hr by Alphascreen method
[1] = molecular target: T1, Histone-lysine N-methyltransferase EHMT2 (Homo sapiens, UniProt Q96KQ7); assay: Inhibition of G9a (unknown origin) by scintillation proximity Assay; settings: for pIC50: read-out: IC50
T1 sequence (Q96KQ7 whole entry): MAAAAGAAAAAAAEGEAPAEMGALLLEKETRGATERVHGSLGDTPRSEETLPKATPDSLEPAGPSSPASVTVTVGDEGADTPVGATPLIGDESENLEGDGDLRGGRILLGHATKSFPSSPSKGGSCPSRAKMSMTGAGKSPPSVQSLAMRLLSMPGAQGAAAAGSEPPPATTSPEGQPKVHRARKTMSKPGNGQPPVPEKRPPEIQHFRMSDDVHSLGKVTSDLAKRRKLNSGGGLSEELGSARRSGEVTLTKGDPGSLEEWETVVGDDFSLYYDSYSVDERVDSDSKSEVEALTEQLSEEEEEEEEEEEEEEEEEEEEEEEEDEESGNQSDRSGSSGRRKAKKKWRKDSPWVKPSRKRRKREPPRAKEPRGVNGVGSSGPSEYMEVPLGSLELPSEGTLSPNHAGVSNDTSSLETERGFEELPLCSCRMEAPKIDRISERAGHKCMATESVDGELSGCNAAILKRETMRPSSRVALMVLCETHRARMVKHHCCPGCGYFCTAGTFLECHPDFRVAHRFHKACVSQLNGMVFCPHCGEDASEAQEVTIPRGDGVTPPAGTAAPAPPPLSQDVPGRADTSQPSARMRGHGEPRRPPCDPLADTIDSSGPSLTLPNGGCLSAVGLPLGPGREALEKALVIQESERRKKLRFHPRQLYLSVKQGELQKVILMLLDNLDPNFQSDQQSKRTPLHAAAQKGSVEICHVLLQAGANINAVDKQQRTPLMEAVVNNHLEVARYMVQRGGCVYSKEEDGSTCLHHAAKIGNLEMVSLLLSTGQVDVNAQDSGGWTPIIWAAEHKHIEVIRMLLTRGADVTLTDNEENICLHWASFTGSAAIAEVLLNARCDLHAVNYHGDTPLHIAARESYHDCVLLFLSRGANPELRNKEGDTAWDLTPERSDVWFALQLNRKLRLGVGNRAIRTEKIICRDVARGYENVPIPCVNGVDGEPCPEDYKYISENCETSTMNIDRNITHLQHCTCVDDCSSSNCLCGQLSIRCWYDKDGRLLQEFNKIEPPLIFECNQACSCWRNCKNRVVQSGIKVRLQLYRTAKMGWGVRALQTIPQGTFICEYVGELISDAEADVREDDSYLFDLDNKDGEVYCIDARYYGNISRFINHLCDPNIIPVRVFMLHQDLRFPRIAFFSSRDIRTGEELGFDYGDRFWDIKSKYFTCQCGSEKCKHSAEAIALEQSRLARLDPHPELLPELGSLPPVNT

U2OS = assay: Cytotoxicity against human U2OS cells assessed as reduction in cell viability at >3 uM incubated for 2 days by propidium iodide staining based assay; settings: 48 h
[2] = Apparent permeability from apical side to basolateral side in human Caco2 cells; format: ADME, cell-based; settings: Caco-2
[3] = Apparent permeability from basolateral side to apical side in human Caco2 cells; format: ADME, cell-based; settings: Caco-2
[4] = Stability in human liver microsomes assessed as intrinsic clearance; format: ADME, Microsome; settings: read-out: CLH
[5] = Stability in moue liver microsomes assessed as intrinsic clearance; format: ADME, Microsome; settings: mouse, read-out: CLH
[6] = Stability in human liver microsomes assessed as half life; format: ADME, Microsome
[7] = Stability in mouse liver microsomes assessed as half life; format: ADME, Microsome
[8] = Solubility of compound at >100 uM; format: physicochemical

Chain of Spindlin-1 (Q9Y657 whole entry, the tested form may be a part): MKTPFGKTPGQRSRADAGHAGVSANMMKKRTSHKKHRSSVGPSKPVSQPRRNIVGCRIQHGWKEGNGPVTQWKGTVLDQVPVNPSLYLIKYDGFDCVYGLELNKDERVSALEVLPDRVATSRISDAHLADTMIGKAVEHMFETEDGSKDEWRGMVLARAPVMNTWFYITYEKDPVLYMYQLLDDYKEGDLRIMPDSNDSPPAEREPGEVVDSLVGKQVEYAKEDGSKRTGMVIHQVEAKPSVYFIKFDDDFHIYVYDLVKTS

pIC50 (Spindlin-1) | pIC50 [1] | Structure (SMILES) | Activity (U2OS) | other results
6.47 |  | COc1ccc2c(c1)CN(CCCOc1cc3c(cc1OCC1CC1)C1(CCCC1)C(N)=N3)C2 |  | 
 | 8.22 | COc1cc2c(cc1OCCCN1CCCC1)N=C(N)C21CCCC1 |  | 
5.16 |  | CC1(C)C(N)=Nc2cc(OCCCCN3Cc4ccccc4C3)c(OCC3CC3)cc21 | Toxic | IC50 [1]: Not Active
 |  | NC1=Nc2cc(OCCCN3Cc4ccccc4C3)c(OCC3CC3)cc2C12CCCC2 | Toxic | IC50 [1]: Not Active
 |  | CC1(C)C(N)=Nc2cc(OCCCCN3Cc4ccc(OCc5cn(CC(=O)N6CCC(CCN7CCCC7)CC6)nn5)cc4C3)c(OCC3CC3)cc21 | Non-Toxic | 
5.18 |  | COc1cc2c(cc1OCCCN1Cc3cccc(OC)c3C1)N=C(N)C21CCCC1 |  | 
5.21 |  | NC1=Nc2cc(OCCCCN3Cc4ccccc4C3)c(OCC3CC3)cc2C12CCCC2 | Toxic | IC50 [1]: Not Active
 | 6.92 | CCOc1cc2c(cc1OCCCN1CCCC1)N=C(N)C21CCCC1 |  | 
 |  | CC1(C)C(N)=Nc2cc(OCCCN3Cc4ccc(OCCc5cn(CC(=O)N6CCC(CCN7CCCC7)CC6)nn5)cc4C3)c(OCC3CC3)cc21 | Non-Toxic | Papp A→B [2]: 6.59 ×10⁻⁶ cm/s; Papp B→A [3]: 6.07 ×10⁻⁶ cm/s; microsomal CLint [4]: 20.3 µL/min/mg; microsomal CLint [5]: 37.4 µL/min/mg; half-life [6]: 68.4 min; half-life [7]: 37.1 min; solubility [8]: Soluble
5.95 | 5.51 | NC1=Nc2cc(OCCCN3CCCC3)c(OCC3CC3)cc2C12CCCC2 |  | 
 |  | CC1(C)C(N)=Nc2cc(OCCCN3Cc4ccccc4C3)c(OCC3CC3)cc21 | Toxic | IC50 [1]: Not Active
5.05 | 6.05 | CC(C)Oc1cc2c(cc1OCCCN1CCCC1)N=C(N)C21CCCC1 |  | 
6.22 |  | COc1ccc2c(c1)CN(CCCOc1cc3c(cc1OC)C1(CCCC1)C(N)=N3)C2 |  | 
6.18 | 5.00 | COc1cc2c(cc1OCCCN1Cc3ccccc3C1)N=C(N)C21CCCC1 |  | 
